Test results: the supplement of paper PMC10307832

Tests used:
Assay in all cases: relative viability (nuclei count vs DMSO), 5 days (fraction); higher = more cells survive
[1] = test system: SW 1573
Outline: (§1)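 Nuclei were stained with Hoechst during a one-step fixation (final 0.05% Triton X-100, 1% formaldehyde, 1 ug/ml Hoechst) carried out 5 days after dosing, then counted on 4× images. The cells, lung cancer lines in 1536-well plates, had been dosed by pin tool the day after seeding with one drug alone or a fixed anchor-drug dose plus five library-drug doses (not always all listed) in √10 steps. Relative viability is the nuclei count in treated wells divided by that in vehicle wells, and each value is the median of duplicate plates.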

[2] = test system: NCI-H2009
Outline: as §1

[3] = test system: HOP-62
Outline: as §1

[4] = test system: NCI-H2170
Outline: as §1

[5] = test system: EMC-BAC-2
Outline: as §1

[6] = test system: PC-3 [JPC-3]
Outline: as §1

[7] = test system: A-427
Outline: as §1

[8] = test system: NCI-H727
Outline: as §1

[9] = test system: HARA
Outline: as §1

[10] = test system: NCI-H1993
Outline: as §1

[11] = test system: NCI-H322M
Outline: as §1

[12] = test system: NCI-H1792
Outline: as §1

[13] = test system: ABC-1
Outline: as §1

[14] = test system: NCI-H596
Outline: as §1

[15] = test system: NCI-H1944
Outline: as §1

[16] = test system: NCI-H2228
Outline: as §1

[17] = test system: NCI-H3122
Outline: as §1

[18] = test system: LK-2
Outline: as §1

[19] = test system: LXF-289
Outline: as §1

[20] = test system: SK-MES-1
Outline: as §1

COc1nc(C)cnc1NS(=O)(=O)c1cccnc1-c1ccc(-c2nnco2)cc1 [Zibotentan] + C[C@@H](Oc1cc(-c2cnn(C3CCNCC3)c2)cnc1N)c1c(Cl)ccc(F)c1Cl [Crizotinib] (partner 1 µM)
relative viability ([1]; first compound 0.08 µM): 0.923 | relative viability ([1]; first compound 0.253 µM): 0.745 | relative viability ([1]; first compound 0.8 µM): 0.822 | relative viability ([1]; first compound 2.53 µM): 0.856 | relative viability ([2]; first compound 0.08 µM): 1.05 | relative viability ([2]; first compound 0.253 µM): 0.947 | relative viability ([2]; first compound 0.8 µM): 0.995 | relative viability ([2]; first compound 2.53 µM): 1.06 | relative viability ([3]; first compound 0.08 µM): 0.854 | relative viability ([3]; first compound 0.253 µM): 0.862 | relative viability ([3]; first compound 0.8 µM): 1.02 | relative viability ([3]; first compound 2.53 µM): 1.06 | relative viability ([4]; first compound 0.08 µM): 1.29 | relative viability ([4]; first compound 0.253 µM): 1.15 | relative viability ([4]; first compound 0.8 µM): 1.2 | relative viability ([4]; first compound 2.53 µM): 1.2 | relative viability ([5]; first compound 0.08 µM): 0.843 | relative viability ([5]; first compound 0.253 µM): 0.751 | relative viability ([5]; first compound 0.8 µM): 0.778 | relative viability ([5]; first compound 2.53 µM): 0.754 | relative viability ([6]; first compound 0.08 µM): 0.951 | relative viability ([6]; first compound 0.253 µM): 0.967 | relative viability ([6]; first compound 0.8 µM): 0.955 | relative viability ([6]; first compound 2.53 µM): 0.966 | relative viability ([7]; first compound 0.08 µM): 0.858 | relative viability ([7]; first compound 0.253 µM): 0.91 | relative viability ([7]; first compound 0.8 µM): 0.904 | relative viability ([7]; first compound 2.53 µM): 0.84 | relative viability ([8]; first compound 0.08 µM): 0.985 | relative viability ([8]; first compound 0.253 µM): 0.825 | relative viability ([8]; first compound 0.8 µM): 0.806 | relative viability ([8]; first compound 2.53 µM): 0.844 | relative viability ([9]; first compound 0.08 µM): 1.03 | relative viability ([9]; first compound 0.253 µM): 0.993 | relative viability ([9]; first compound 0.8 µM): 1.02 | relative viability ([9]; first compound 2.53 µM): 1.18 | relative viability ([10]; first compound 0.253 µM): 0.915 | relative viability ([10]; first compound 0.8 µM): 0.73 | relative viability ([10]; first compound 2.53 µM): 1.04 | relative viability ([11]; first compound 0.08 µM): 0.932 | relative viability ([11]; first compound 0.253 µM): 0.901 | relative viability ([11]; first compound 0.8 µM): 0.496 | relative viability ([11]; first compound 2.53 µM): 0.934 | relative viability ([12]; first compound 0.08 µM): 1.19 | relative viability ([12]; first compound 0.253 µM): 0.949 | relative viability ([12]; first compound 0.8 µM): 0.884 | relative viability ([12]; first compound 2.53 µM): 0.99 | relative viability ([13]; first compound 0.08 µM): 1.45 | relative viability ([13]; first compound 0.253 µM): 0.847 | relative viability ([13]; first compound 0.8 µM): 1.07 | relative viability ([13]; first compound 2.53 µM): 0.987 | relative viability ([14]; first compound 0.08 µM): 0.942 | relative viability ([14]; first compound 0.253 µM): 0.898 | relative viability ([14]; first compound 0.8 µM): 0.989 | relative viability ([14]; first compound 2.53 µM): 0.957 | relative viability ([15]; first compound 0.08 µM): 1.26 | relative viability ([15]; first compound 0.253 µM): 1.08 | relative viability ([15]; first compound 0.8 µM): 1.06 | relative viability ([15]; first compound 2.53 µM): 1.06 | relative viability ([16]; first compound 0.08 µM): 0.548 | relative viability ([16]; first compound 0.253 µM): 0.369 | relative viability ([16]; first compound 0.8 µM): 0.451 | relative viability ([16]; first compound 2.53 µM): 0.441 | relative viability ([17]; first compound 0.08 µM): 0.259 | relative viability ([17]; first compound 0.253 µM): 0.234 | relative viability ([17]; first compound 0.8 µM): 0.269 | relative viability ([17]; first compound 2.53 µM): 0.282 | relative viability ([18]; first compound 0.08 µM): 0.259 | relative viability ([18]; first compound 0.253 µM): 0.237 | relative viability ([18]; first compound 0.8 µM): 0.253 | relative viability ([18]; first compound 2.53 µM): 0.241 | relative viability ([19]; first compound 0.08 µM): 0.882 | relative viability ([19]; first compound 0.253 µM): 0.804 | relative viability ([19]; first compound 0.8 µM): 0.822 | relative viability ([19]; first compound 2.53 µM): 0.805 | relative viability ([20]; first compound 0.08 µM): 1.12 | relative viability ([20]; first compound 0.253 µM): 1.02 | relative viability ([20]; first compound 0.8 µM): 0.969 | relative viability ([20]; first compound 2.53 µM): 0.932

COc1nc(C)cnc1NS(=O)(=O)c1cccnc1-c1ccc(-c2nnco2)cc1 [Zibotentan] + Cc1nc(NC(=O)N2CCC[C@H]2C(N)=O)sc1-c1ccnc(C(C)(C)C(F)(F)F)c1 [Alpelisib] (partner 2 µM)
relative viability ([1]; first compound 0.08 µM): 0.726 | relative viability ([1]; first compound 0.253 µM): 0.639 | relative viability ([1]; first compound 0.8 µM): 0.775 | relative viability ([1]; first compound 2.53 µM): 0.758 | relative viability ([2]; first compound 0.08 µM): 1.14 | relative viability ([2]; first compound 0.253 µM): 1.1 | relative viability ([2]; first compound 0.8 µM): 1.18 | relative viability ([2]; first compound 2.53 µM): 1.2 | relative viability ([3]; first compound 0.08 µM): 1.01 | relative viability ([3]; first compound 0.253 µM): 1.03 | relative viability ([3]; first compound 0.8 µM): 1.12 | relative viability ([3]; first compound 2.53 µM): 0.911 | relative viability ([4]; first compound 0.08 µM): 0.802 | relative viability ([4]; first compound 0.253 µM): 0.791 | relative viability ([4]; first compound 0.8 µM): 0.889 | relative viability ([4]; first compound 2.53 µM): 0.835 | relative viability ([5]; first compound 0.08 µM): 0.78 | relative viability ([5]; first compound 0.253 µM): 0.72 | relative viability ([5]; first compound 0.8 µM): 0.714 | relative viability ([5]; first compound 2.53 µM): 0.782 | relative viability ([6]; first compound 0.08 µM): 1.01 | relative viability ([6]; first compound 0.253 µM): 1.06 | relative viability ([6]; first compound 0.8 µM): 1.05 | relative viability ([6]; first compound 2.53 µM): 1.04 | relative viability ([7]; first compound 0.08 µM): 1.08 | relative viability ([7]; first compound 0.253 µM): 1.14 | relative viability ([7]; first compound 0.8 µM): 1.09 | relative viability ([7]; first compound 2.53 µM): 1.08 | relative viability ([8]; first compound 0.08 µM): 0.483 | relative viability ([8]; first compound 0.253 µM): 0.794 | relative viability ([8]; first compound 0.8 µM): 0.55 | relative viability ([8]; first compound 2.53 µM): 0.643 | relative viability ([9]; first compound 0.08 µM): 0.856 | relative viability ([9]; first compound 0.253 µM): 0.764 | relative viability ([9]; first compound 0.8 µM): 0.686 | relative viability ([9]; first compound 2.53 µM): 0.89 | relative viability ([10]; first compound 0.253 µM): 0.679 | relative viability ([10]; first compound 0.8 µM): 0.652 | relative viability ([10]; first compound 2.53 µM): 0.766 | relative viability ([11]; first compound 0.08 µM): 0.692 | relative viability ([11]; first compound 0.253 µM): 0.704 | relative viability ([11]; first compound 0.8 µM): 0.719 | relative viability ([11]; first compound 2.53 µM): 0.905 | relative viability ([12]; first compound 0.08 µM): 0.621 | relative viability ([12]; first compound 0.253 µM): 0.58 | relative viability ([12]; first compound 0.8 µM): 0.559 | relative viability ([12]; first compound 2.53 µM): 0.648 | relative viability ([13]; first compound 0.08 µM): 1.1 | relative viability ([13]; first compound 0.253 µM): 0.689 | relative viability ([13]; first compound 0.8 µM): 1.11 | relative viability ([13]; first compound 2.53 µM): 1.07 | relative viability ([14]; first compound 0.08 µM): 0.532 | relative viability ([14]; first compound 0.253 µM): 0.482 | relative viability ([14]; first compound 0.8 µM): 0.485 | relative viability ([14]; first compound 2.53 µM): 0.484 | relative viability ([15]; first compound 0.08 µM): 0.915 | relative viability ([15]; first compound 0.253 µM): 0.808 | relative viability ([15]; first compound 0.8 µM): 0.756 | relative viability ([15]; first compound 2.53 µM): 0.888 | relative viability ([16]; first compound 0.08 µM): 0.66 | relative viability ([16]; first compound 0.253 µM): 0.652 | relative viability ([16]; first compound 0.8 µM): 0.59 | relative viability ([16]; first compound 2.53 µM): 0.873 | relative viability ([17]; first compound 0.08 µM): 0.801 | relative viability ([17]; first compound 0.253 µM): 0.773 | relative viability ([17]; first compound 0.8 µM): 0.76 | relative viability ([17]; first compound 2.53 µM): 0.822 | relative viability ([18]; first compound 0.08 µM): 1.08 | relative viability ([18]; first compound 0.253 µM): 0.911 | relative viability ([18]; first compound 0.8 µM): 0.889 | relative viability ([18]; first compound 2.53 µM): 1.46 | relative viability ([19]; first compound 0.08 µM): 1.03 | relative viability ([19]; first compound 0.253 µM): 1.04 | relative viability ([19]; first compound 0.8 µM): 1.11 | relative viability ([19]; first compound 2.53 µM): 1.09 | relative viability ([20]; first compound 0.08 µM): 0.947 | relative viability ([20]; first compound 0.253 µM): 0.871 | relative viability ([20]; first compound 0.8 µM): 0.948 | relative viability ([20]; first compound 2.53 µM): 0.989
